Laboratory results taken from ChEMBL document CHEMBL5465560, “Selectivity Literature for EUbOPEN Chemogenomic Library” (2024).

Experiments:
[1] = target: Serine/threonine-protein kinase 38 (Homo sapiens) (UniProt Q15208); assay: Selectivity interaction (KinomeScan (DiscoverX)) EUB0000595a STK38; conditions: at 10 µM
[2] = target: G protein-coupled receptor kinase 4 (Homo sapiens) (UniProt P32298); assay: Selectivity interaction (KinomeScan (DiscoverX)) EUB0000595a GRK4; conditions: at 10 µM
[3] = target: Insulin receptor (Homo sapiens, UniProt P06213); assay: Selectivity interaction (KinomeScan (DiscoverX)) EUB0000666a INSR; conditions: at 10 µM
[4] = target: Amine oxidase [flavin-containing] A (Homo sapiens, UniProt P21397); assay: Selectivity interaction (Panel of non-epigenetic targets (kinases, GPCRs, ion channels, and transporters, Eurofins) ) EUB0000271b MAOA; conditions: at 1 µM
[5] = target: Tyrosine-protein kinase JAK1 (Homo sapiens, UniProt P23458); assay: Selectivity interaction (KinomeScan (DiscoverX)) EUB0001868a JAK1; conditions: at 1 µM
[6] = target: Alpha-1A adrenergic receptor (Homo sapiens, UniProt P35348); assay: Selectivity interaction (Alpha1A calcium flux assay ) EUB0000877a ADRA1A
[7] = target: Leukocyte tyrosine kinase receptor (Homo sapiens, UniProt P29376); assay: Selectivity interaction (ProQinase) EUB0000171b LTK
[8] = target: T1, Mitogen-activated protein kinase kinase kinase 2 (Homo sapiens) (UniProt Q9Y2U5); assay: Selectivity interaction (KinomeScan (DiscoverX)) EUB0001619a MAP3K2; conditions: at 1 µM
T1 sequence (whole entry): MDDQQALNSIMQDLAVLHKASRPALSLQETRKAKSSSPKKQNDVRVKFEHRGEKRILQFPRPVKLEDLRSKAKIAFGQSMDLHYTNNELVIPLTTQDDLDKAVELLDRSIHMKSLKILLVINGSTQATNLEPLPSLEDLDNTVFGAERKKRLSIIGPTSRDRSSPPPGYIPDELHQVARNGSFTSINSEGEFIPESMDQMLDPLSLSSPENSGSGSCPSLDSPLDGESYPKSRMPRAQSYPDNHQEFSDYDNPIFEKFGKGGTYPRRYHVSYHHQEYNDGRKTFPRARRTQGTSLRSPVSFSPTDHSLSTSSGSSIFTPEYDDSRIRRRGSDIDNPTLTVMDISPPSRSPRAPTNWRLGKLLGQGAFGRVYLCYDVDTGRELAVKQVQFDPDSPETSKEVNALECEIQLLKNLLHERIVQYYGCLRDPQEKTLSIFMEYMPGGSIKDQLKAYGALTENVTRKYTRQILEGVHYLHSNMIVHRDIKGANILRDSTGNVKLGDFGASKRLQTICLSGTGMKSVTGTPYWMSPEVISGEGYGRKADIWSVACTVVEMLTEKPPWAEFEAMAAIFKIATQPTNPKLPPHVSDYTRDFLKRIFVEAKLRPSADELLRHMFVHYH

[9] = target: T2, Serine/threonine-protein kinase TBK1 (Homo sapiens) (UniProt Q9UHD2); assay: Selectivity interaction (ActivX KiNativ screen (ex vivo kinase selectivity in human PBMCs)) EUB0001619a TBK1; assay type: cell-based; conditions: PBMC, at 1 µM
T2 sequence (whole entry): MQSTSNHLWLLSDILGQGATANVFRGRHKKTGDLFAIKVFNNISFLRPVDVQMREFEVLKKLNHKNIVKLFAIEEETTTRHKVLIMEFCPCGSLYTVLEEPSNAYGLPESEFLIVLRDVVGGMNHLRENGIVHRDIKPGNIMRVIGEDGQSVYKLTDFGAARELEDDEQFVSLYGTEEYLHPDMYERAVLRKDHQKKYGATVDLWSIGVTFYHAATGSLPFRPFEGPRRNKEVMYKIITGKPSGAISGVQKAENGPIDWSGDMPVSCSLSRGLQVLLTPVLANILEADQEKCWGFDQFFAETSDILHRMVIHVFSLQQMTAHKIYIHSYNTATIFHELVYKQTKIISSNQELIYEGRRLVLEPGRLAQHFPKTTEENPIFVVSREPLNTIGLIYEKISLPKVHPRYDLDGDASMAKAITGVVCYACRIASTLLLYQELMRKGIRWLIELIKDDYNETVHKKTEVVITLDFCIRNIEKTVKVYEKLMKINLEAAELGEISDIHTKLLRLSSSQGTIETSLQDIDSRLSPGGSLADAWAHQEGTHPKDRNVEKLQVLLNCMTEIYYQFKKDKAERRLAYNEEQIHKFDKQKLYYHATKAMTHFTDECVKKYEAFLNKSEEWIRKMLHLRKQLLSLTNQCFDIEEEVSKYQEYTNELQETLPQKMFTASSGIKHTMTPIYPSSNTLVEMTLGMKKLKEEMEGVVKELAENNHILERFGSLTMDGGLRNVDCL

[10] = target: T3, Phosphatidylinositol 5-phosphate 4-kinase type-2 gamma (Homo sapiens) (UniProt Q8TBX8); assay: Selectivity interaction (ActivX KiNativ screen (kinase selectivity in THP-1 cell lysates)) EUB0000639a PIP4K2C; assay type: subcellular; conditions: lysate, at 1 µM
T3 sequence (whole entry): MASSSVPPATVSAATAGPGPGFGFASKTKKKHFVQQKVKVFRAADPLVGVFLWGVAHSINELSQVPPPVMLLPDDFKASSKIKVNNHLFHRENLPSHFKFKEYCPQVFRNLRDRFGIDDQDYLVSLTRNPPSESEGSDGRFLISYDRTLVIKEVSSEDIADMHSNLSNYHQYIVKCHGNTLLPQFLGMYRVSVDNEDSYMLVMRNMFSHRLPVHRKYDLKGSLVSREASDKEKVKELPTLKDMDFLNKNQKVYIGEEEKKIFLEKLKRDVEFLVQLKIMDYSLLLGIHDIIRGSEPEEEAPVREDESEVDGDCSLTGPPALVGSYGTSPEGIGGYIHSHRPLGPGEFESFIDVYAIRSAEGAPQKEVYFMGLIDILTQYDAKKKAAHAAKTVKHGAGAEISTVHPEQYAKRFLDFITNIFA

[11] = target: Tyrosine-protein kinase Lyn (Homo sapiens, UniProt P07948); assay: Selectivity interaction (ActivX KiNativ screen (kinase selectivity in THP-1 cell lysates)) EUB0000639a LYN; assay type: subcellular; conditions: lysate, at 1 µM
[12] = target: Interferon-induced, double-stranded RNA-activated protein kinase (Homo sapiens) (UniProt P19525); assay: Selectivity interaction (KinomeScan (DiscoverX)) EUB0000655a EIF2AK2; conditions: at 10 µM
[13] = target: T4, Aurora kinase C (Homo sapiens) (UniProt Q9UQB9); assay: Selectivity interaction (KinomeScan (DiscoverX)) EUB0000092b AURKC; conditions: at 10 µM
T4 sequence (whole entry): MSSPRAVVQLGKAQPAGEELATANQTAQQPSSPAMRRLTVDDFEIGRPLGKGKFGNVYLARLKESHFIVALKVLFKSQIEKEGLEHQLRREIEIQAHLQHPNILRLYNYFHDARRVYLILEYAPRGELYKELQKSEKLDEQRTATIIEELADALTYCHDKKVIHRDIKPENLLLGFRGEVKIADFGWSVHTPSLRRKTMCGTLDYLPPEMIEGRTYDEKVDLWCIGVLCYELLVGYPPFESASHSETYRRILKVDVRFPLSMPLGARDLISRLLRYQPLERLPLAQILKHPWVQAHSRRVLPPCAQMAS

Leukocyte tyrosine kinase receptor, sequence (P29376 whole entry): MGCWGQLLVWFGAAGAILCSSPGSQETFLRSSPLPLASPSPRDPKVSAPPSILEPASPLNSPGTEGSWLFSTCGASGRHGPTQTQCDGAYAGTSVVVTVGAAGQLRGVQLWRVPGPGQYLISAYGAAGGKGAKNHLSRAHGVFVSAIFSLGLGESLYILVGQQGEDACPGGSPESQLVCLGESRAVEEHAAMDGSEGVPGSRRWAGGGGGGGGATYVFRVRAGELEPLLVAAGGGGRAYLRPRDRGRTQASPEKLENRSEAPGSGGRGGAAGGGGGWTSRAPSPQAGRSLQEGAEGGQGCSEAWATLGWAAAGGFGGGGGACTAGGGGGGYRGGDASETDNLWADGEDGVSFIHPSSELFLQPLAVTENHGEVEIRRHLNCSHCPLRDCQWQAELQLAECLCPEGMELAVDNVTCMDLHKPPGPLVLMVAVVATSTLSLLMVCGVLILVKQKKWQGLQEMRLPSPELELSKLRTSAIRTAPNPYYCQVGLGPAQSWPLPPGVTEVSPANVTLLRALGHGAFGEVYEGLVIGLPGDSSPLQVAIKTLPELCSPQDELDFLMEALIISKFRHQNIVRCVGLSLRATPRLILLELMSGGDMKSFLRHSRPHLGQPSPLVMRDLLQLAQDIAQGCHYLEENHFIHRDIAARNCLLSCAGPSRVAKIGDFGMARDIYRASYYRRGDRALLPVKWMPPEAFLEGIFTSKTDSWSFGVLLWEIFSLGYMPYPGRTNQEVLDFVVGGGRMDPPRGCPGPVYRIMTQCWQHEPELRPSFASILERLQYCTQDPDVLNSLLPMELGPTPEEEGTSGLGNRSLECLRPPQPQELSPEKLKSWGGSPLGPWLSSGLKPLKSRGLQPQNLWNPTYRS
Insulin receptor, sequence (P06213 28-758 limits assumed): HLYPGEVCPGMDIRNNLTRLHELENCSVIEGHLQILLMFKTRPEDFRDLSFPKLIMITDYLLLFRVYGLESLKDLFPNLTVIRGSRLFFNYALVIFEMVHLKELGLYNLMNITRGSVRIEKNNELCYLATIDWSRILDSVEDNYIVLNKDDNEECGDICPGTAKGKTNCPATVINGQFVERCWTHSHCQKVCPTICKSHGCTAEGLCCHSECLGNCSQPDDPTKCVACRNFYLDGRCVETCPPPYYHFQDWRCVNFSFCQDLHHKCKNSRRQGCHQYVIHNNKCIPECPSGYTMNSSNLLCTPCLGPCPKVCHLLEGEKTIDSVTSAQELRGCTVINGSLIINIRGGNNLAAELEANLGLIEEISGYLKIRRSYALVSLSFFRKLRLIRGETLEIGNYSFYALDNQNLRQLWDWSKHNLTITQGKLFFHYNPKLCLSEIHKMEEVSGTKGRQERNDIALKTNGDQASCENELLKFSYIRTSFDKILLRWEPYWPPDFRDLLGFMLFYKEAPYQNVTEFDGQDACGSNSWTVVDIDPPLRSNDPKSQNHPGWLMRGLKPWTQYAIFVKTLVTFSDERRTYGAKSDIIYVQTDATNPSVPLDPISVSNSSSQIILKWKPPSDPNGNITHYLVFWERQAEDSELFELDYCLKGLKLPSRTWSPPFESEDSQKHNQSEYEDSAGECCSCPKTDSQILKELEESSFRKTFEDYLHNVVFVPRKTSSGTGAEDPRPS
Insulin receptor, sequence (P06213 763-1382 limits assumed): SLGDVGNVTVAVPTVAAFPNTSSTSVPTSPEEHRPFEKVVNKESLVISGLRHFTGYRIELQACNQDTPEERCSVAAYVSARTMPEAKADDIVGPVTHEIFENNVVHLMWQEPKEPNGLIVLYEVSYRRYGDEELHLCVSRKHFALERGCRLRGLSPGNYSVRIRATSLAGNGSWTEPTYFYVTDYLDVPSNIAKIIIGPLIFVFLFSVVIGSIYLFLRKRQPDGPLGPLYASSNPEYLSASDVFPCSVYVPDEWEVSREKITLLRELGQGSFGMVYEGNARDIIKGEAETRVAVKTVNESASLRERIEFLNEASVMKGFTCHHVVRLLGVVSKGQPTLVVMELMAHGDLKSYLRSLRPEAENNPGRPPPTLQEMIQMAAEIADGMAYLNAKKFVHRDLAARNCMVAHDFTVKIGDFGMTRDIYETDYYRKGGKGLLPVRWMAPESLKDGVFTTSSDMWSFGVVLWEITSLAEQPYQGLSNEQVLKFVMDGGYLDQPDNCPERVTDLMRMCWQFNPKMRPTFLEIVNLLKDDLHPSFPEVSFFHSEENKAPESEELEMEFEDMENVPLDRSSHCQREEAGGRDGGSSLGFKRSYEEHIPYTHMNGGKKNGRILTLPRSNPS
Tyrosine-protein kinase Lyn, sequence (P07948 2-512 limits assumed): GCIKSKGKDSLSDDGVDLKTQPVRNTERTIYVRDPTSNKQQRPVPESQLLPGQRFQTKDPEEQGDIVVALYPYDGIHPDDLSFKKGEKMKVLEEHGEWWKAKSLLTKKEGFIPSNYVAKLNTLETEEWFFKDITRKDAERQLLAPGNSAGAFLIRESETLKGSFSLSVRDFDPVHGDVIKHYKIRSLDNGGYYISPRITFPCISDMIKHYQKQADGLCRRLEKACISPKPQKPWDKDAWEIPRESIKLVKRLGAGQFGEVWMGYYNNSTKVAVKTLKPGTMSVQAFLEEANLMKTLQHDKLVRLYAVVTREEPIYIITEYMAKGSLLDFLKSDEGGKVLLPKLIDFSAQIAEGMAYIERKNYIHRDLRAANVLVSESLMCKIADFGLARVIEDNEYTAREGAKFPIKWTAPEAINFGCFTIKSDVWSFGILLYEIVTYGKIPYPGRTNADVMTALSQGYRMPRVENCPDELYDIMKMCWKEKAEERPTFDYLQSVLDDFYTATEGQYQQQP
Amine oxidase [flavin-containing] A, sequence (P21397 whole entry): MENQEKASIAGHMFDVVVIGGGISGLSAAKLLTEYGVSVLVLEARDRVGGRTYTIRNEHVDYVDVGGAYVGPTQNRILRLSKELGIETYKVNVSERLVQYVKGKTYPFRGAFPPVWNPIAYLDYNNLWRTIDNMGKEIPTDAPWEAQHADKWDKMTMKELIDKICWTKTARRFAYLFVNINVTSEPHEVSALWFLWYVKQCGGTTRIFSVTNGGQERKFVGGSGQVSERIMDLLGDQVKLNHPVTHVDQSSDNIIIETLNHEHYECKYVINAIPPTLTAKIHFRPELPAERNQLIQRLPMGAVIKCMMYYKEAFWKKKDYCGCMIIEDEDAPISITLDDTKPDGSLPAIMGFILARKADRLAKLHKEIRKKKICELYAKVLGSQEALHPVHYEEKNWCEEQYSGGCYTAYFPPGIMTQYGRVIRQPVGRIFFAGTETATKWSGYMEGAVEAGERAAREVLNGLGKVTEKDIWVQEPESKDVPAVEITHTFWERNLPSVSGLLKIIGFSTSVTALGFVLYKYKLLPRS
Alpha-1A adrenergic receptor, sequence (P35348 whole entry): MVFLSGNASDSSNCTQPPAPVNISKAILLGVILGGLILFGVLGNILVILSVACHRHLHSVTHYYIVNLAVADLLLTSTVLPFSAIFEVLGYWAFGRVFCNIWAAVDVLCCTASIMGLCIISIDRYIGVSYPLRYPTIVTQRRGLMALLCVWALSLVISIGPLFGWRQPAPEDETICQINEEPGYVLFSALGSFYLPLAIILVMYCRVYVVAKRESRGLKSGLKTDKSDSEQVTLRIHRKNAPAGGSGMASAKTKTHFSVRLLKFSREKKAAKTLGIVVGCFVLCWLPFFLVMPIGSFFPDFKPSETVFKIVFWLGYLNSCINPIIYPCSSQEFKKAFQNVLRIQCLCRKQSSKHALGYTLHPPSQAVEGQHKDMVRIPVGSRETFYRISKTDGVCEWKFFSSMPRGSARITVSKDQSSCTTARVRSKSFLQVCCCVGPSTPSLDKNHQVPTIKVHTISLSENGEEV
G protein-coupled receptor kinase 4 (Homo sapiens), sequence (P32298 whole entry, looked up): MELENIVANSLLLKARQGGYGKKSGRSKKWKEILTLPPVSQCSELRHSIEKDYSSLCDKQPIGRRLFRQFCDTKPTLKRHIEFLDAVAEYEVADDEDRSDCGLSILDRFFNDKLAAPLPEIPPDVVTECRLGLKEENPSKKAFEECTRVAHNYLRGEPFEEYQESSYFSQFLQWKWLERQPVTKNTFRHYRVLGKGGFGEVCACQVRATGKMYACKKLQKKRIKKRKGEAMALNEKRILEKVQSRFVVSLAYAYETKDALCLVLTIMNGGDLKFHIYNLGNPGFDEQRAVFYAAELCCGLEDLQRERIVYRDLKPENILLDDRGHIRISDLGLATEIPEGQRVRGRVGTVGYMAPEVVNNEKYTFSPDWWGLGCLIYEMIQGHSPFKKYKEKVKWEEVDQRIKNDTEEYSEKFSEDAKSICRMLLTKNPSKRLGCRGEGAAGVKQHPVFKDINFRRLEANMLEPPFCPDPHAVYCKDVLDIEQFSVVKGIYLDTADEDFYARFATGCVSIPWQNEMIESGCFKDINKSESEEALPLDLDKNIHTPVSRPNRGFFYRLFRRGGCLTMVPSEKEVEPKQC
Serine/threonine-protein kinase 38 (Homo sapiens), sequence (Q15208 2-465 limits assumed): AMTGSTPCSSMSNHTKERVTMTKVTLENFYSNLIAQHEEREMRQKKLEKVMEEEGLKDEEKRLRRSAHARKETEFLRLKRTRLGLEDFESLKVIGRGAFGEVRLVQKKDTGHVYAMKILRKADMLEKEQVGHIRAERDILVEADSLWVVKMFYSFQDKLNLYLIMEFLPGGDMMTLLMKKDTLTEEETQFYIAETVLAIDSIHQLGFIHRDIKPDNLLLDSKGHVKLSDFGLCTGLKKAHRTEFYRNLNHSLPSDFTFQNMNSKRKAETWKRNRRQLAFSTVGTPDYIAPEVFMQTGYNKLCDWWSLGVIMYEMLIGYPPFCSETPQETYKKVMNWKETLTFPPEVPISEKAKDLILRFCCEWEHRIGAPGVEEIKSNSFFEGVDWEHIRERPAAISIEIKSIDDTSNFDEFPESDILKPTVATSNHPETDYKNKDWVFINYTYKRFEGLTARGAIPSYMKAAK

COCC(=O)NC/C=C/c1ccc2ncnc(Nc3ccc(Oc4ccc(C)nc4)c(C)c3)c2c1 [CP-724714]
% of control [1]: 73% | % of control [2]: 100%

O=C(NOC[C@H](O)CO)c1ccc(F)c(F)c1Nc1ccc(I)cc1F
% of control [3]: 92%

Cc1cc(C)cc([C@@H]2c3cc(C)ccc3NC(=O)CN2C(=O)c2ccc(Br)s2)c1
% of inhibition [4]: 12%

Cc1cc(-c2ccnc(Nc3cnn(C)c3)n2)ccc1CNC(=O)N1CC(OC(C)C)C1
% of control [5]: 29%

CCC(=O)N1CC[C@H](Nc2ncnc3c2CN(c2cnc(OC)c(C(F)(F)F)c2)CC3)C1 [LENIOLISIB]
IC50 [6]: > 30 µM

C=CC(=O)Nc1cccc(C(=O)Nc2ccc(Nc3cc(-c4[nH]c(SC)nc4C)ccn3)cc2)c1
% of control ([7]; at 1 µM): 108% | % of control ([7]; at 5 µM): 99%

N#Cc1cccc(-c2c[nH]c3ncnc(N4CCOCC4)c23)c1
% of control [8]: 21% | % of inhibition [9]: 16%

CC[C@@H]1[C@H](F)C(=O)N[C@@H]1COc1nccc2cc(C(N)=O)c(OC)cc12 [ZIMLOVISERTIB]
% of inhibition [10]: 76.4% | % of inhibition [11]: -14.1%

CN(C)CCOc1ccc(-c2nc(-c3ccncc3)c(-c3ccc4c(c3)CC/C4=N\O)[nH]2)cc1
% of control [12]: 61%

CCC(=O)N1CCN(c2ccc(-n3c(=O)ccc4cnc5ccc(-c6cnc7ccccc7c6)cc5c43)cc2C(F)(F)F)CC1
% of control [13]: 91%
